Residue numbers refer to the chain shown, from its start.
What was measured:
[1] = biological target: T1, His-TEV-AtPP01 ΔcTP L479M (SEQ ID NO: 371) (Arabidopsis thaliana, UniProt P55826, L479M); experiment: activity rate of PPO variant in in vitro assay; type: biochemical; settings: role: substrate; 1 uM protoporphyrinogen IX; no inhibitor
T1 construct: with cTPs removed; made in house; host or cells: E. coli BL21 (DE3), His GraviTrap, partially purified
T1 sequence (P55826 with tags, fused parts or gaps L479M): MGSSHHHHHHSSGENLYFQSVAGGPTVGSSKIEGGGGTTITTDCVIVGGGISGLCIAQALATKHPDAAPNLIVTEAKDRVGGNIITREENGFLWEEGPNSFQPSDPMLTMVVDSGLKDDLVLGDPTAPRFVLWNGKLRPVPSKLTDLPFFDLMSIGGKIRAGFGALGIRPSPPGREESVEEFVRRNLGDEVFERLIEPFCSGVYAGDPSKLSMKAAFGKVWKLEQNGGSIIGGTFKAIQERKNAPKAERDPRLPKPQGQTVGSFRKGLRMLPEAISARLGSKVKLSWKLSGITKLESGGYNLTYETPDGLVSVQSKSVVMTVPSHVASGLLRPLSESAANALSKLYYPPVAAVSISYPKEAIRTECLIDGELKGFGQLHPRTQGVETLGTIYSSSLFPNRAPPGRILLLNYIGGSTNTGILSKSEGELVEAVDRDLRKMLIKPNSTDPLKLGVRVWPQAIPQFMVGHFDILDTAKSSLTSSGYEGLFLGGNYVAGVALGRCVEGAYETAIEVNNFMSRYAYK
Description: (§1) A pET24 plasmid containing a DNA sequence encoding variants of AtPPO1 derived from Arabidopsis thaliana with cTPs removed and both a 6×His tag and TEV protease cleavage tag added at the N-terminus, codon-optimised for expression in E. coli, and under control of a T7 promoter, was synthesised by Twist Bioscience. The following variants were synthesised: WT AtPPO1 (SEQ ID NO: 370), AtPPO1 L479M (SEQ ID NO: 371), AtPPO1 L479N (SEQ ID NO: 372), AtPPO1 S305L Y426V (SEQ ID NO: 374) and AtPPO1 S305L Y426V L479M (SEQ ID NO: 373). This plasmid was expressed in E. coli BL21 (DE3) with 50 μg/mL kanamycin selection. 10 mL of overnight cultures grown at 37° C. were used to inoculate 1 L AIM (AIM-Terrific Broth Base including Trace elements, Formedium) in 2 L shake flasks. Cultures were grown at 37° C., 200 rpm for 3 hours and then overnight at 26° C. Cells were harvested centrifugation. 5-15 g of cell pellet was lysed in and resuspended in ratio of 1:1.5 in lysis buffer (20 mM Tris pH8, 500 mM sodium chloride, 10% glycerol, 1× complete Protease EDTA-free Inhibitor Tablet (Roche), 10 mM imidazole). The resuspension was sonicated at 75% using 10 cycles of 30 seconds, 40 seconds off. After sonication Triton X-100 was added to the lysates at a final concentration of 0.5%. The lysates were centrifuged at 20,000 rpm for 25 min at 4° C. Cleared lysates were loaded on His GraviTrap (Cytiva) columns, washed with 20 mL of lysis buffer and eluted in elution buffer (20 mM Tris pH8, 500 mM sodium chloride, 10% glycerol, 200 mM imidazole, 0.03% (v/v) Triton X-100). The eluate was desalted on a PD10 column and 2.5-3.2 mL was collected. Protein concentration was measured and calculated using the absorbance at 280 nm. Extracts were diluted 1 in 4 and 10 uL was analysed by SDS PAGE.
(§2) Partially purified Protoporphyrinogen Oxidase enzymes were assayed for activity using fluorescence adapted from the method of Shepherd & Dailey (Anal Biochem. 2005 344(1) 115-121). The assay was performed in black 384 well plates with a clear bottom and the total volume of the reaction mixture was 91 ul. The final assay mixture contained 100 mM K2HPO4 pH7.2, 1 mM Na2EDTA, 5 mM DTT, 20% glycerol (v/v), 0.05% Tween 20 (v/v), 1.1% DMSO (v/v), 1 uM protoporphyrinogen IX and 1.5 nM enzyme. Compounds were dissolved in DMSO at 1 mM and a 4-fold serial dilution carried out to give 8 rates. 1 ul was added to the assay mixture. This gave final compound concentrations of 11, 2.7, 0.69, 0.17, 0.04, 0.01, 0.002, 0.0007 uM. Enzyme and inhibitor were preincubated for 5 minutes prior to starting the reaction with the addition of the substrate. […] IC50s were calculated using GraphPad Prism 7.05 nonlinear regression (Table 6). Each compound was tested in duplicate.

[2] = biological target: T2, His-TEV-AtPP01 ΔcTP L479N (SEQ ID NO: 372) (Arabidopsis thaliana, UniProt P55826, L479N); experiment: activity rate of PPO variant in in vitro assay; type: biochemical; settings: role: substrate; 1 uM protoporphyrinogen IX; no inhibitor
T2 construct: with cTPs removed; made in house; host or cells: E. coli BL21 (DE3), His GraviTrap, partially purified
T2 sequence (P55826 with tags, fused parts or gaps L479N): T1 sequence (P55826 with tags, fused parts or gaps L479M) with M464N
Description: as §1, §2

`C=Cc1c2[nH]c(c1C)Cc1[nH]c(c(CCC(=O)O)c1C)Cc1[nH]c(c(C)c1CCC(=O)O)Cc1[nH]c(c(C)c1C=C)C2` [protoporphyrinogen IX] was tested, and the Rate [1] was 9.9 rfu second^−1 pmole^−1 and the Rate [2] was 13.2 rfu second^−1 pmole^−1.
